Measured values from patent US20150307520A1, “NOVEL HETEROARYL AND HETEROCYCLE COMPOUNDS, COMPOSITIONS AND METHODS THEREOF” (HUTCHISON MEDIPHARMA LIMITED, priority 2012, published 2015).

Experiments:
Assay type in all cases: biochemical
p110δ/p85α = p110δ/p85α (Homo sapiens, UniProt O00329); test: Transcreener KINASE Assay, kinase inhibition of p110δ/p85α; settings: for PI3Kδ IH % @ 1 uM: 1 uM test compound; for IC50: read-out: PI3Kδ IC50
How it was run: (§1)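 Steps: compound (2% DMSO final) plus enzyme in HEPES/NaCl/EGTA/CHAPS/3 mM MgCl2/1 mM DTT buffer; start with PIP2/ATP addition (30 uM/10 uM solution); 80 min RT; add ADP detection mix, 60 min RT; read fluorescence polarization.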

p110γ = p110γ (Homo sapiens, UniProt P48736); test: Transcreener KINASE Assay, kinase inhibition of p110γ; settings: for PI3Kγ IH % @ 1 uM: 1 uM test compound; for IC50: read-out: PI3Kγ IC50
How it was run: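 Homogeneous endpoint format using recombinant enzymes; ADP measured by far-red FP immunoassay after 80 min reaction and 60 min detection, both at room temperature.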

p110β/p85α = p110β/p85α (Homo sapiens, UniProt P42338); test: Transcreener KINASE Assay, kinase inhibition of p110β/p85α; settings: for PI3Kβ IH % @ 1 uM: 1 uM test compound; for IC50: read-out: PI3Kβ IC50
How it was run: as §1

p110α/p85α = p110α/p85α (Homo sapiens, UniProt P42336); test: Transcreener KINASE Assay, kinase inhibition of p110α/p85α; settings: for PI3Kα IH % @ 1 uM: 1 uM test compound; for IC50: read-out: PI3Kα IC50
Protocol: PI3K kinases including p110α/p85α, p110δ/p85α and p110γ are purchased from Invitrogen, and p110β/p85α is from Millipore.
Primary screening data and IC50 values are measured using Transcreener™ KINASE Assay (Bellbrook, Catalog #3003-10K). […] It is a universal, homogenous, high throughput screening (HTS) technology using a far-red, competitive fluorescence polarization immunoassay based on the detection of ADP to monitor the activity of enzymes that catalyze group transfer reactions. Briefly, the Transcreener KINASE Assay is designed as a simple two-part, endpoint assay.
In the first step, the 25 ul kinase reaction is performed by preparing a reaction mixture containing 5 ul test compound (2% DMSO final concentration), 10 ul kinase, buffer (50 mM HEPES, 100 mM NaCl, 1 mM EGTA, 0.03% CHAPS, 3 mM MgCl2, and freshly supplemented 1 mM DTT), and 10 ul 30 uM PIP2/10 uM ATP. The plate is sealed and incubated for 80 min at room temperature. Next, 25 ul ADP detection mix is added per well. The plate is sealed again and incubated for 60 min at room temperature, and then measure fluorescence polarization by Tecan Infinite F500 Reader.
Data is analyzed and IC50s are generated using the add-in software for Microsoft Excel, Xlfit™ (version 2.0). IH %=(ADP amount under 2% DMSO-ADP amount under test compound)/ADP amount under 2% DMSO.

Sequence of p110α/p85α (P42336 whole entry): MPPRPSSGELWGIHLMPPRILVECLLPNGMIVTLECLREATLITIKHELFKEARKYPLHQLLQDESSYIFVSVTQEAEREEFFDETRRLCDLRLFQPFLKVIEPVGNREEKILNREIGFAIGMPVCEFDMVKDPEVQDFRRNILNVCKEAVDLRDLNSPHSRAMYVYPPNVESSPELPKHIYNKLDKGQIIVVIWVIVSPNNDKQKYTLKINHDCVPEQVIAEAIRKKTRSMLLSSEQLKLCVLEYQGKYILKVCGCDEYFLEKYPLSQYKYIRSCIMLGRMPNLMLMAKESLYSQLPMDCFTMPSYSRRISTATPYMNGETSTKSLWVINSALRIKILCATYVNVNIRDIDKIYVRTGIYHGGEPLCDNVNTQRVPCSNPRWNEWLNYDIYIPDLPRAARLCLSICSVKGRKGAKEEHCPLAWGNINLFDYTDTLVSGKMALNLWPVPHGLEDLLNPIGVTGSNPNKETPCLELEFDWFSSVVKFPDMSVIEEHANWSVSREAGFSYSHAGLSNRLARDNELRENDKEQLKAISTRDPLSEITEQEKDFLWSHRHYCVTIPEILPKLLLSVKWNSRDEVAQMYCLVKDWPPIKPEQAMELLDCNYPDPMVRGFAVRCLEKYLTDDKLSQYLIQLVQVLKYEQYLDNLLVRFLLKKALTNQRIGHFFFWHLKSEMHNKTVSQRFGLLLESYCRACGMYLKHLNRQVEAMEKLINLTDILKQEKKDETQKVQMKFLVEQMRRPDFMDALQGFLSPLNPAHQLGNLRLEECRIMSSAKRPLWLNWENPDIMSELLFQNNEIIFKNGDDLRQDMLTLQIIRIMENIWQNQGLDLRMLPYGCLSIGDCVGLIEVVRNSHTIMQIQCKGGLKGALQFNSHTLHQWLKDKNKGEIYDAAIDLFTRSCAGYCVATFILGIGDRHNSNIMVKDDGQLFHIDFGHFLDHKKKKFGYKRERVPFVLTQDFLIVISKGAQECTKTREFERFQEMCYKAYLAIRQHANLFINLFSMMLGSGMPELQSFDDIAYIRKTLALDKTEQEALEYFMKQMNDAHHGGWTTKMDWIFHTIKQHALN
Sequence of p110α/p85α (P27986 whole entry partner): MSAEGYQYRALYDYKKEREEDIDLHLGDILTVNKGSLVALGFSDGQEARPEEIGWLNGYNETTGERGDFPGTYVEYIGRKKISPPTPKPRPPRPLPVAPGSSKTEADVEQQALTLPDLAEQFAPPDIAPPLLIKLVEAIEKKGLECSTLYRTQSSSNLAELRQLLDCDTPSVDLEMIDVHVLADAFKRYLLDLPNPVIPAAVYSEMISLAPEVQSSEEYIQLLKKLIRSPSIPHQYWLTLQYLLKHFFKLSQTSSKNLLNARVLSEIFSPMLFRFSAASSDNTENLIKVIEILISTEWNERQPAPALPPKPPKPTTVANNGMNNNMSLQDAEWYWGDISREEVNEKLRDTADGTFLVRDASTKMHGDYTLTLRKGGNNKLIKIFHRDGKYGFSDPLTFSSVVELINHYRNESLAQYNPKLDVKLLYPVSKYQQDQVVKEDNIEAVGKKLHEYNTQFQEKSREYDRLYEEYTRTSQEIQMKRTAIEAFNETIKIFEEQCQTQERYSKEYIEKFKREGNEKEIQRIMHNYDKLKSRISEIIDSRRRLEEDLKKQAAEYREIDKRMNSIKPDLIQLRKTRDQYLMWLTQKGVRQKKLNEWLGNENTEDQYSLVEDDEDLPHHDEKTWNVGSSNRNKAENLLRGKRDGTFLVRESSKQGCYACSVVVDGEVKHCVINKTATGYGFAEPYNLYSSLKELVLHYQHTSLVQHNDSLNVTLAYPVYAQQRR
Sequence of p110δ/p85α (O00329 whole entry): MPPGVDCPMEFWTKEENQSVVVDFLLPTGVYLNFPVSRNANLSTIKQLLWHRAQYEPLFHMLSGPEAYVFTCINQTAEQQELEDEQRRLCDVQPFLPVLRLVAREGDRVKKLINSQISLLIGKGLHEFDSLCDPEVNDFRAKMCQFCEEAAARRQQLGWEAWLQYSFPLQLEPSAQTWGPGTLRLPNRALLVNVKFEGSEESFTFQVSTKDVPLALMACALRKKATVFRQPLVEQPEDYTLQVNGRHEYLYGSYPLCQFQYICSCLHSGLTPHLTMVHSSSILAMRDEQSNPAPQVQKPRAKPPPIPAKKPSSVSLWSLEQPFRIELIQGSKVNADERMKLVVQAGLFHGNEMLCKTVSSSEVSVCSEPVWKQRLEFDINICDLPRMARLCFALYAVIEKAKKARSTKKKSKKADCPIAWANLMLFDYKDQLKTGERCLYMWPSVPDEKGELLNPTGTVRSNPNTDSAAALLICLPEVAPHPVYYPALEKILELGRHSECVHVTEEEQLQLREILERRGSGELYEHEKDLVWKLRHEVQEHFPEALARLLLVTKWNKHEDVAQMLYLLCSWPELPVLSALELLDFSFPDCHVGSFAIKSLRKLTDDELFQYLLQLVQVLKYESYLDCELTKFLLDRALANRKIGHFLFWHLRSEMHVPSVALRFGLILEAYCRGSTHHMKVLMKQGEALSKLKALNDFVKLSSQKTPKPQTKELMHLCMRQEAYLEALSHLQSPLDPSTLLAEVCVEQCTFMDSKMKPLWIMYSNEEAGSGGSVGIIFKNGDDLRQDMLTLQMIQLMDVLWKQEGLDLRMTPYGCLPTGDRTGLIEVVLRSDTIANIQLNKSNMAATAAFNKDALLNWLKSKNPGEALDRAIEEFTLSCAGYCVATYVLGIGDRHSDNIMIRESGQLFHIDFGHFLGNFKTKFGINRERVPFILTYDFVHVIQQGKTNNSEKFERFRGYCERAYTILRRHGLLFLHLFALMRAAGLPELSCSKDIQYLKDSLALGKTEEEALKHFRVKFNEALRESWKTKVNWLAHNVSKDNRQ
Sequence of p110δ/p85α (P27986 whole entry partner): as the sequence (P27986 whole entry partner) above
Sequence of p110γ (P48736 whole entry): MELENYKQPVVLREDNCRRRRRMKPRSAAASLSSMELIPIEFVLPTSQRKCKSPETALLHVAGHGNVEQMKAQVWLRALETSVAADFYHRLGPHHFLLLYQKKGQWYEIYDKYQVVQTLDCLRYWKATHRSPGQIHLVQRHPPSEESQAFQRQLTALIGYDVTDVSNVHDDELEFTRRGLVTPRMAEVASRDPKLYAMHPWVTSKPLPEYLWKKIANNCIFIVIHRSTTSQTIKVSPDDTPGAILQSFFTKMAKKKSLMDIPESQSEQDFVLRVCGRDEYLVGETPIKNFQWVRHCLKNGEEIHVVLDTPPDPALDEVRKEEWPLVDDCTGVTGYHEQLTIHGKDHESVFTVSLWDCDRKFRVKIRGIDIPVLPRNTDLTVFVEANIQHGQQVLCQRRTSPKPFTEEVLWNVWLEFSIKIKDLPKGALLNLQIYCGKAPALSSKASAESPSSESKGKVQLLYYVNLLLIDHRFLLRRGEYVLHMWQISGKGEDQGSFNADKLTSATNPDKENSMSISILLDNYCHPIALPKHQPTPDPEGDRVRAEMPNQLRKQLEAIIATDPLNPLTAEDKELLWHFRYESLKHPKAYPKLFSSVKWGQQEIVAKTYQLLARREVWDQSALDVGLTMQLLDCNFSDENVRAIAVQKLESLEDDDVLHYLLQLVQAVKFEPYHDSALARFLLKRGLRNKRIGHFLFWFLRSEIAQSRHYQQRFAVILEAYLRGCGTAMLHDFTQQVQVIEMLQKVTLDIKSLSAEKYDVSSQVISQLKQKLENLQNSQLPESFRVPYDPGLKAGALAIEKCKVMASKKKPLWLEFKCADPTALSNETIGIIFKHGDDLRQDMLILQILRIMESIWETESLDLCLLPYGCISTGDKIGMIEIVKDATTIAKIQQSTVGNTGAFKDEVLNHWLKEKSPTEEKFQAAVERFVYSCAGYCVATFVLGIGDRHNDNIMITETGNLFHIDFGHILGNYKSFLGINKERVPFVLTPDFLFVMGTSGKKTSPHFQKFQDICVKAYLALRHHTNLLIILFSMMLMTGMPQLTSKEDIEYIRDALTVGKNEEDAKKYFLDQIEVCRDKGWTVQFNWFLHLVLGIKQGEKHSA

| SMILES | PI3Kδ IH % @ 1 uM (p110δ/p85α) [%] | PI3Kγ IH % @ 1 uM (p110γ) [%] | PI3Kβ IH % @ 1 uM (p110β/p85α) [%] | PI3Kα IH % @ 1 uM (p110α/p85α) [%] | IC50 (p110δ/p85α) [nM] | IC50 (p110γ) [nM] | IC50 (p110β/p85α) [nM] | IC50 (p110α/p85α) [nM] |
| --- | --- | --- | --- | --- | --- | --- | --- | --- |
| CC(=O)c1cnc(N)nc1N1C[C@H](C)[C@H]1c1nn2ccc(Cl)c2c(=O)n1-c1ccc(F)cc1 [Compound 206] | 94 | >100 | >100 |  | 7 | 1 | 181 | 372 |
| COc1cccc(-n2c([C@@H]3CCCN3c3ncnc4[nH]cnc34)nn3ccc(Cl)c3c2=O)c1 [Compound 36] | 99.1 | 90.8 | 60.9 | 6.4 |  | 35 |  |  |
| O=c1c2c(Cl)ccn2nc([C@@H]2CCCN2c2ncnc3[nH]cnc23)n1-c1ccccn1 [Compound 311] | >100 | >100 | 79.4 | 10.1 |  | 34 | 379 |  |
| Cc1ccn2nc([C@@H]3CCCN3c3ncnc4[nH]cnc34)n(-c3ccccc3)c(=O)c12 [Compound 43] | >100 | 96.6 | 66.0 | 35.1 | 2 | 19 |  |  |
| CC(Nc1nc(N)ncc1C(F)(F)F)c1cn2ccc(Cl)c2c(=O)n1-c1cccc(F)c1 (centres unmarked) [Compound 84] | >100 | 75.9 | 59.3 | −3.5 | 4 | 32 |  |  |
| CC(Nc1ncnc2[nH]cnc12)c1cc2ccc(Cl)n2c(=O)n1-c1cccc(F)c1 (centres unmarked) [Compound 127] | 99.2 | >100 | 71.3 | 7.0 | 5 | 57 | 307 |  |
| Nc1ccc(-c2c[nH]c3ncnc(N4CC[C@H]4c4nn5ccc(Cl)c5c(=O)n4-c4ccccc4)c23)cn1 [Compound 101] | >100 | >100 | 81.6 | 47.8 | 3 |  | 138 |  |
| CC(=O)c1cnc(N)nc1N1CC[C@H]1c1nn2ccc(Cl)c2c(=O)n1-c1ccccc1 [Compound 299] | 99.4 |  | 38.6 |  | 6 |  | 644 | 2940 |
| CC(Nc1ncnc2[nH]cnc12)c1cc2cccn2c(=O)n1-c1ccccc1 (centres unmarked) [Compound 119, 3-(1-(9H-purin-6-ylamino)ethyl)-2-phenylpyrrolo[1,2-c]pyrimidin-1(2H)-one] | 94.3 | 85.6 | 47.8 |  |  | 239 |  |  |
| Cc1nc(N)nc(N2CC[C@H]2c2nn3ccc(Cl)c3c(=O)n2-c2ccccc2)c1C#N [Compound 283] | >100 | >100 | 78.0 |  | 2 | 1 | 137 |  |
| Cc1nc(N)nc(N2CC[C@H]2c2nn3ccc(F)c3c(=O)n2-c2ccccc2)c1C#N [Compound 322] | 99.5 | >100 | 58.0 |  | 5 | 27 |  |  |
| C[C@H]1CN(c2nc(N)ncc2C#N)C1c1nn2ccc(Cl)c2c(=O)n1-c1ccc(F)cc1 (some centres unmarked) [Compound 432] | 81.3 | 89.0 | 43.2 |  | 160 | 9 |  |  |
| Nc1nc(N2CC[C@H]2c2nn3ccc(Cl)c3c(=O)n2-c2ccccc2)n2ncc(Cl)c2n1 [Compound 314, (S)-2-(1-(2-amino-8-chloropyrazolo[1,5-a][1,3,5]triazin-4-yl)azetidin-2-yl)-5-chloro-3-phenylpyrrolo[2,1-f][1,2,4]triazin-4(3H)-one] | 17.2 | 54.1 | 16.8 |  |  |  |  |  |

Now from value to compound:

| PI3Kδ IH % @ 1 uM (p110δ/p85α) [%] | PI3Kγ IH % @ 1 uM (p110γ) [%] | PI3Kβ IH % @ 1 uM (p110β/p85α) [%] | PI3Kα IH % @ 1 uM (p110α/p85α) [%] | IC50 (p110δ/p85α) [nM] | IC50 (p110γ) [nM] | IC50 (p110β/p85α) [nM] | IC50 (p110α/p85α) [nM] | SMILES |
| --- | --- | --- | --- | --- | --- | --- | --- | --- |
| 91.5 | 58.6 | 28.0 | −10.6 |  |  |  |  | N#Cc1c[nH]c2ncnc(N3CC[C@H]3c3nn4cccc4c(=O)n3-c3ccccc3)c12 [Compound 6] |
| >100 | >100 | >100 | 28.4 | 1 | 10 | 284 |  | C[S+]([O-])c1c[nH]c2ncnc(N3CCC[C@H]3c3nn4ccc(Cl)c4c(=O)n3-c3ccccc3)c12 (some centres unmarked) [Compound 186] |
| >100 | 98.6 | 93.7 | 80.9 | 1 |  | 34 |  | N#Cc1c[nH]c2ncnc(N3CCC[C@H]3c3nn4ccc(Cl)c4c(=O)n3-c3ccccc3)c12 [Compound 25] |
| >100 | 72.5 | 18.5 | −1.5 | 84 |  |  |  | O=c1c2c(Cl)ccn2nc([C@@H]2CCN2c2ncnc3[nH]cnc23)n1-c1ccccc1 [Compound 29] |
| 96.8 | 84.6 | 12.4 | −2.5 | 29 | 203 |  |  | COc1cccc(-n2c([C@@H]3CCN3c3ncnc4[nH]cc(C#N)c34)nn3ccc(Cl)c3c2=O)c1 [Compound 34] |
| >100 | 74.1 | 51.3 | −20.5 | 9 | 94 |  |  | Nc1ncnc(N2CC[C@H]2c2nn3ccc(Cl)c3c(=O)n2-c2ccccc2)c1Cl [Compound 30] |
| 95.4 | >100 | 42.2 | 7.1 | 39 | 39 |  |  | N#Cc1c[nH]c2ncnc(N3CCC[C@H]3c3nn4ccc(Cl)c4c(=O)n3Cc3ccccc3)c12 [Compound 62] |
| 98.9 | 89.9 | 78.8 | 32.6 | 3 | 41 | 251 |  | CC(C)Cn1c([C@@H]2CCCN2c2ncnc3[nH]cc(C#N)c23)nn2ccc(Cl)c2c1=O [Compound 64] |
| >100 | >100 | 50.6 | 52.6 | 14 | 78 |  |  | N#Cc1c[nH]c2ncnc(N3CCC[C@H]3c3nn4ccc(Cl)c4c(=O)n3Cc3ccccn3)c12 [Compound 65] |
| >100 | >100 | >100 | 28.4 | 1 | 10 | 284 |  | C[S+]([O-])c1c[nH]c2ncnc(N3CCC[C@H]3c3nn4ccc(Cl)c4c(=O)n3-c3ccccc3)c12 (some centres unmarked) [Compound 197] |
| 99.7 | 96.7 | 56.4 | 9.7 |  |  |  |  | CO/N=C(\C)c1c[nH]c2ncnc(N3CCC[C@H]3c3nn4ccc(Cl)c4c(=O)n3-c3ccccc3)c12 [Compound 308] |
| >100 | >100 | 71.3 |  | 1 | 2 | 400 |  | O=c1c2c(Cl)ccn2nc([C@@H]2CCN2c2ncnc3[nH]cc(C#CCO)c23)n1-c1ccccc1 [Compound 165] |
| >100 | 97.9 | 51.5 |  | 2 | 15 |  |  | N#Cc1c[nH]c2ncnc(N3CCC[C@H]3c3nn4ccc(CO)c4c(=O)n3-c3ccccc3)c12 [Compound 179] |
| 74.6 | 59.9 | 13.8 |  | 176 |  |  |  | COCCNC(=O)c1c[nH]c2ncnc(N3CC[C@H]3c3nn4ccc(Cl)c4c(=O)n3-c3ccccc3)c12 [Compound 228] |
| >100 | 97.2 | 40.7 |  | 34 | 11 |  |  | C[S+]([O-])c1n[nH]c2ncnc(N3CCC[C@H]3c3nn4ccc(Cl)c4c(=O)n3-c3ccccc3)c12 (stereo partly drawn) [Compound 352, 5-chloro-2-((2S)-1-(3-(methylsulfinyl)-1H-pyrazolo[3,4-d]pyrimidin-4-yl)pyrrolidin-2-yl)-3-phenylpyrrolo[2,1-f][1,2,4]triazin-4(3H)-one] |
